Results taken from US20220387608A1, “ADRENOMEDULLIN-ANALOGUES FOR LONG-TERM STABILIZATION AND THEIR USE” (Bayer Aktiengesellschaft, priority 2019, published 2022).
Positions of bridges follow the written chain, without caps; N, C: chain ends. Non-standard residues stand in square brackets, D forms with d. Residues, ends and D or L forms follow the SMILES beside them. PEG4 = NCCOCCOCCOCCOCCC(=O)O; AEEEA = NCCOCCOCCOCC(=O)O; PEG3 = NCCOCCOCCOCCC(=O)O

Target: T1, AM1R (Homo sapiens, UniProt O60895+Q16602)
T1 construct: EYFP; ECFP; expressed in transfected cells; host or cells: HEK-293 (transient co-transfection)
Test: Activity determination in vitro: cAMP/CRE-luciferase reporter assay in HEK293 cells transiently co-transfected with CLR and RAMP2
Format: cell-based
Conditions: for Emax: HEK293, normalized to [G14]ADM(14-52); for EC50: HEK293 with CLR/RAMP2, CRE-luciferase, 3 h stimulation
Method: (1a) Activity Determination of Adrenomedullin Analogues in vitro
Cell Culture HEK-293 cells (human embryonic kidney cells) were cultured in Ham's F-12/DMEM (1/1; v/v) containing 15% FCS under humidified atmosphere at 37° C. and 5% CO2 in 75 cm^2 cell culture flasks.
Cells were cultured in 75 cm^2 flasks to 70-80% confluency. 45 μl Metafectene® Pro was diluted in 900 ρl Ham's F-12/DMEM (1/1; v/v) and incubated for 20 min at room temperature. 9 μg plasmid containing DNA of CLR fused to EYFP and 3 μg plasmid containing DNA of RAMP2 fused to ECFP were dissolved in 900 μl Ham's F-12/DMEM (1/1; v/v). The plasmid solution was mixed with the Metafectene® Pro solution and incubated for 25 min at room temperature. Medium was removed from the cells and replaced by 6 m1 Ham's F-12/DMEM (1/1; v/v) containing 15% FCS. After addition of transfection solution the cells were incubated for 3 h under humidified atmosphere at 37° C. and 5% CO2. For the second transfection 45 μl Metafectene® Pro was diluted in 900 μl Ham's F-12/DMEM (1/1; v/v) and incubated for 20 min at room temperature. 12 μg of pGL4.29[Luc2P/CRE/Hygro] plasmid containing DNA for the luciferase reporter gene luc2P (with CRE promotor region) were dissolved in 900 μl Ham's F-12/DMEM (1/1; v/v). The plasmid solution was mixed with the Metafectene® Pro solution and incubated for 25 min at room temperature. Medium was removed from the cells and replaced by 6 m1 Ham's F-12/DMEM (1/1; v/v) containing 15% FCS. After addition of transfection solution, the cells were incubated under humidified atmosphere at 37° C. and 5% CO2 over night.
For coating of 96-well-plates, 50 μl of a poly-D-lysine solution in DPBS (0.1 mg/ml) were pipetted in each well and incubated for 40 min. After removal of poly-D-lysine, each well was washed with 50 μl DPBS. Transiently transfected cells were detached from the cell culture flask by removal of the medium, 2-fold washing with 5 m1 DPBS and resuspending in 40 m1 Ham's F-12/DMEM (1/1; v/v) containing 15% FCS. 90,000 to 120,000 cells in 150 μl Ham's F-12/DMEM (1/1; v/v) containing 15% FCS were seeded per well and the plates were incubated under humidified atmosphere at 37° C. and 5% CO2 over night.
For each ligand, a serial dilution with eight different concentrations was prepared using Ham's F^12/DMEM (1/1; v/v). Before stimulation, the medium on the cells was replaced by 100 μl Ham's F^12/DMEM (1/1; v/v) and the plates were incubated for 1 h under humidified atmosphere at 37° C. and 5% CO2. For stimulation, the medium was removed and the cells were incubated for 3 h in 80 μl of ligand-solution under humidified atmosphere at 37° C. and 5% CO2. In addition 80 μl of a 5 μM forskolin solution in Ham's F-12/DMEM (1/1; v/v) was used as a positive control and 80 μl of Ham's F-12/DMEM (1/1; v/v) as a negative control. Each concentration and the controls were tested as triplicates.
After 3 h of stimulation, the solutions were removed and the cells were washed with 50 μl of Ham's F-12/DMEM (1/1; v/v) perwell. After 10 m incubation in 30 μl of Ham's F-12/DMEM (1/1; v/v) at room temperature, 30 μl of luciferase-solution (ONE-Glo™ Luciferase Assay System) was added and the luminescence was directly measured using an Infinite M200 (Tecan).
Data analysis of the luminescence measurement was carried out with GraphPad Prism 5. Therefore, the measured luminescence values of each plate were first corrected on the base of the respective average of forskolin stimulation. Afterwards they were normalized to [G14]ADM(14-52), which was used as standard peptide in every assay. After correction and normalization, data was analyzed using non-linear regression giving dose-response curves for each tested ligand.

T1 sequence (Q16602 23-461): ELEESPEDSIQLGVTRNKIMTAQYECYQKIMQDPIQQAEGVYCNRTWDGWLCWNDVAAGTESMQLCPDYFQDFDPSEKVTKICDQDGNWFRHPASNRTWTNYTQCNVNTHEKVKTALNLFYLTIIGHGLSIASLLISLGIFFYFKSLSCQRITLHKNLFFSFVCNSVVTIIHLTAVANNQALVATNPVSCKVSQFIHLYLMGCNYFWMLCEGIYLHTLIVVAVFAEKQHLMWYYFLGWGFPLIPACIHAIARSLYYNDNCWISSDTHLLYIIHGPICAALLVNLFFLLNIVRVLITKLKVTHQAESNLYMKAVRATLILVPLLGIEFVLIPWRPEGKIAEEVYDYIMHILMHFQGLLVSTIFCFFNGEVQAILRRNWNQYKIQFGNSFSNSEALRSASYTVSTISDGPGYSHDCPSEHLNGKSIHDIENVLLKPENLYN
T1 sequence (O60895 43-175): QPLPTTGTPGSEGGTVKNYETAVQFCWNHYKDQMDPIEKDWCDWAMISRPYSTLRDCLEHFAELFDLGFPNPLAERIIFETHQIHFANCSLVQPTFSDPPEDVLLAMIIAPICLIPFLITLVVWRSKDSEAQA

Emax | EC50 | SMILES
95 ± 7% | 21 nM | CC[C@H](C)[C@H](NC(=O)[C@H](CCC(N)=O)NC(=O)[C@H](Cc1c[nH]cn1)NC(=O)[C@H](C)NC(=O)[C@H](CC(C)C)NC(=O)[C@H](CCCCN)NC(=O)[C@H](CCC(N)=O)NC(=O)[C@@H](NC(=O)[C@@H](NC(=O)[C@@H]1CSSC[C@H](NC(=O)CNC(=O)CN)C(=O)N[C@@H](CCCNC(=N)N)C(=O)N[C@@H](Cc2ccccc2)C(=O)NCC(=O)N[C@@H]([C@@H](C)O)C(=O)N1)[C@@H](C)O)C(C)C)C(=O)N[C@@H](Cc1ccc(O)cc1)C(=O)N[C@@H](CCC(N)=O)C(=O)N[C@@H](Cc1ccccc1)C(=O)N[C@H](C(=O)NCCOCCOCCOCC(=O)N[C@@H](CC(=O)O)C(=O)N[C@@H](CC(N)=O)C(=O)N[C@H](C(=O)N[C@@H](C)C(=O)N1CCC[C@H]1C(=O)N[C@@H](CCCNC(=N)N)C(=O)N[C@@H](CO)C(=O)N[C@@H](CCCCN)C(=O)N[C@H](C(=O)N[C@@H](CO)C(=O)N1CCC[C@H]1C(=O)N[C@@H](CCC(N)=O)C(=O)NCC(=O)N[C@@H](Cc1ccc(O)cc1)C(N)=O)[C@@H](C)CC)C(C)C)[C@@H](C)O [Example 6, ((4R,7S,13S,16S,19R)-19-(2-(2-aminoacetamido)acetamido)-13-benzyl-16-(3-guanidinopropyl)-7-((R)-1-hydroxyethyl)-6,9,12,15,18-pentaoxo-1,2-dithia-5,8,11,14,17-pentaazacycloicosane-4-carbonyl)-L-threonyl-ADM(23-34)-(2-(2-(2-(2-(k2-azaneyl)ethoxy)ethoxy)ethoxy)acetyl)-L-aspartyl-ADM(40-52)] (H-GGCRFGTCTVQKLAHQIYQFT[AEEEA]DNVAPRSKISPQGY-NH2; disulfide 3-8)
103 ± 4% | 13 nM | CC[C@H](C)[C@H](NC(=O)[C@H](CCC(N)=O)NC(=O)[C@H](Cc1c[nH]cn1)NC(=O)[C@H](C)NC(=O)[C@H](CC(C)C)NC(=O)[C@H](CCCCN)NC(=O)[C@H](CCC(N)=O)NC(=O)[C@@H](NC(=O)[C@@H](NC(=O)[C@@H]1CSSC[C@H](NC(=O)CNC(=O)CN)C(=O)N[C@@H](CCCNC(=N)N)C(=O)N[C@@H](Cc2ccccc2)C(=O)NCC(=O)N[C@@H]([C@@H](C)O)C(=O)N1)[C@@H](C)O)C(C)C)C(=O)N[C@@H](Cc1ccc(O)cc1)C(=O)N[C@@H](CCC(N)=O)C(=O)N[C@@H](Cc1ccccc1)C(=O)N[C@H](C(=O)NCCOCCOCCOCCC(=O)N[C@@H](CC(=O)O)C(=O)N[C@@H](CC(N)=O)C(=O)N[C@H](C(=O)N[C@@H](C)C(=O)N1CCC[C@H]1C(=O)N[C@@H](CCCNC(=N)N)C(=O)N[C@@H](CO)C(=O)N[C@@H](CCCCN)C(=O)N[C@H](C(=O)N[C@@H](CO)C(=O)N1CCC[C@H]1C(=O)N[C@@H](CCC(N)=O)C(=O)NCC(=O)N[C@@H](Cc1ccc(O)cc1)C(N)=O)[C@@H](C)CC)C(C)C)[C@@H](C)O [Example 7, ((4R,7S,13S,16S,19R)-19-(2-(2-aminoacetamido)acetamido)-13-benzyl-16-(3-guanidinopropyl)-7-((R)-1-hydroxyethyl)-6,9,12,15,18-pentaoxo-1,2-dithia-5,8,11,14,17-pentaazacycloicosane-4-carbonyl)-L-threonyl-ADM(23-34)-(3-(2-(2-(2-(λ^2-azaneyl)ethoxy)ethoxy)ethoxy)propanoyl)-L-aspartyl-ADM(40-52)] (H-GGCRFGTCTVQKLAHQIYQFT[PEG3]DNVAPRSKISPQGY-NH2; disulfide 3-8)
95 ± 3% | 16 nM | CC[C@H](C)[C@H](NC(=O)[C@H](CCC(N)=O)NC(=O)[C@H](Cc1c[nH]cn1)NC(=O)[C@H](C)NC(=O)[C@H](CC(C)C)NC(=O)[C@H](CCCCN)NC(=O)[C@H](CCC(N)=O)NC(=O)[C@@H](NC(=O)[C@@H](NC(=O)[C@@H]1CSSC[C@H](NC(=O)CNC(=O)CN)C(=O)N[C@@H](CCCNC(=N)N)C(=O)N[C@@H](Cc2ccccc2)C(=O)NCC(=O)N[C@@H]([C@@H](C)O)C(=O)N1)[C@@H](C)O)C(C)C)C(=O)N[C@@H](Cc1ccc(O)cc1)C(=O)N[C@@H](CCC(N)=O)C(=O)N[C@@H](Cc1ccccc1)C(=O)N[C@H](C(=O)NCCOCCOCCOCCOCCC(=O)N[C@@H](CC(N)=O)C(=O)N[C@H](C(=O)N[C@@H](C)C(=O)N1CCC[C@H]1C(=O)N[C@@H](CCCNC(=N)N)C(=O)N[C@@H](CO)C(=O)N[C@@H](CCCCN)C(=O)N[C@H](C(=O)N[C@@H](CO)C(=O)N1CCC[C@H]1C(=O)N[C@@H](CCC(N)=O)C(=O)NCC(=O)N[C@@H](Cc1ccc(O)cc1)C(N)=O)[C@@H](C)CC)C(C)C)[C@@H](C)O [Example 8, ((4R,7S,13S,16S,19R)-19-(2-(2-aminoacetamido)acetamido)-13-benzyl-16-(3-guanidinopropyl)-7-((R)-1-hydroxyethyl)-6,9,12,15,18-pentaoxo-1,2-dithia-5,8,11,14,17-pentaazacycloicosane-4-carbonyl)-L-threonyl-ADM(23-34)-(1-(λ^2-azaneyl)-3,6,9,12-tetraoxapentadecan-15-oyl)-L-asparagyl-ADM(41-52)] (H-GGCRFGTCTVQKLAHQIYQFT[PEG4]NVAPRSKISPQGY-NH2; disulfide 3-8)
87 ± 4% | 49 nM | CC[C@H](C)[C@H](NC(=O)[C@H](CCC(N)=O)NC(=O)[C@H](Cc1c[nH]cn1)NC(=O)[C@H](C)NC(=O)[C@H](CC(C)C)NC(=O)[C@H](CCCCN)NC(=O)[C@H](CCC(N)=O)NC(=O)[C@@H](NC(=O)[C@@H](NC(=O)[C@@H]1CSSC[C@H](NC(=O)CNC(=O)CN)C(=O)N[C@@H](CCCNC(=N)N)C(=O)N[C@@H](Cc2ccccc2)C(=O)NCC(=O)N[C@@H]([C@@H](C)O)C(=O)N1)[C@@H](C)O)C(C)C)C(=O)N[C@@H](Cc1ccc(O)cc1)C(=O)N[C@@H](CCC(N)=O)C(=O)N[C@@H](Cc1ccccc1)C(=O)N[C@H](C(=O)N[C@@H](CC(=O)O)C(=O)NCCOCCOCCOCCC(=O)N[C@@H](CC(N)=O)C(=O)N[C@H](C(=O)N[C@@H](C)C(=O)N1CCC[C@H]1C(=O)N[C@@H](CCCNC(=N)N)C(=O)N[C@@H](CO)C(=O)N[C@@H](CCCCN)C(=O)N[C@H](C(=O)N[C@@H](CO)C(=O)N1CCC[C@H]1C(=O)N[C@@H](CCC(N)=O)C(=O)NCC(=O)N[C@@H](Cc1ccc(O)cc1)C(N)=O)[C@@H](C)CC)C(C)C)[C@@H](C)O [Example 9, ((4R,7S,13S,16S,19R)-19-(2-(2-aminoacetamido)acetamido)-13-benzyl-16-(3-guanidinopropyl)-7-((R)-1-hydroxyethyl)-6,9,12,15,18-pentaoxo-1,2-dithia-5,8,11,14,17-pentaazacycloicosane-4-carbonyl)-L-threonyl-ADM(23-35)-(3-(2-(2-(2-(λ^2-azaneyl)ethoxy)ethoxy)ethoxy)propanoyl)-L-asparagyl-ADM(41-52)] (H-GGCRFGTCTVQKLAHQIYQFTD[PEG3]NVAPRSKISPQGY-NH2; disulfide 3-8)
